Measured values reported in patent US20260158009A1 (GENZYME CORPORATION, priority 2023, published 2026).

Legend:
U937 cells = assay: Cellular assay in U937 cells: activity of RIPK1 inhibitors on TNFα/zVAD.fmk-induced cell death (necroptosis), CellTiter 96 AQueous (MTS) readout; assay type: cell-based; conditions: Homo sapiens, U-937
Procedure, shortened: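 Necroptosis was measured by viable-cell MTS reduction (4 h, absorbance 490 nm) after overnight (18–24 h) 37° C culture. Cell suspensions of U937 cells carried TNFα (100 ng/ml) plus zVAD.fmk (50 μM) before compound was added. A 10-point curve (10 μM–0.26 nM or 1 μM–0.07 nM) was run in duplicate, normalised to the control lacking TNFα/zVAD.fmk.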

[1] = biological target: T1, hRIPK1 (aa 1-375) fusion protein (Homo sapiens, UniProt Q13546); assay: ADP-Glo kinase assay: catalytic activity of RIPK1 (autophosphorylation, conversion of ATP to ADP); assay type: biochemical
T1 construct: hRIPK1 (aa 1-375) fusion protein
T1 sequence (Q13546 1-375): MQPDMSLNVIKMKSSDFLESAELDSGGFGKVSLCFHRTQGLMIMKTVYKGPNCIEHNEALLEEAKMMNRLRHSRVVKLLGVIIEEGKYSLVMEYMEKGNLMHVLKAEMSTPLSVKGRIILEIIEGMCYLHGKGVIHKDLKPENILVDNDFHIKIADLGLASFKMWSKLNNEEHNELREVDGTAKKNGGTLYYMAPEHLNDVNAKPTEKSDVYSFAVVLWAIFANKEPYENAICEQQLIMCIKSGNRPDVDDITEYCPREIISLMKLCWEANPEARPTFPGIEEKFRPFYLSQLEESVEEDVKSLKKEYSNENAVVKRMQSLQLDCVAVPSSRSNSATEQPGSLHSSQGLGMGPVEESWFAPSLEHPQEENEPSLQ
Procedure, shortened: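 hRIPK1 (aa 1-375) fusion protein (3.6 μg/ml final) was preincubated 30 min at rt with compound (33300-1.69 nM, 1% DMSO), then 50 μM ATP was added for 240 min at rt. ADP from autophosphorylation was measured by ADP-Glo luminescence and curves fitted by nonlinear regression.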

Compound	IC50 [1]	IC50 (U937 cells)
O=C([C@H]1CC[C@H](Cc2cncc(F)c2)CC1)N1OCC[C@H]1c1cnccn1 [compound 147, trans-[4-[(5-fluoro-3-pyridyl)methyl]cyclohexyl]-[(3S)-3-pyrazin-2-ylisoxazolidin-2-yl]methanone]	27 nM	40 nM
N#Cc1cc(F)cc([C@@H]2CCON2C(=O)[C@H]2CC[C@H](Cn3ccc4ncccc43)CC2)c1 [compound 14, trans-3-((S)-2-(4-((1H-pyrrolo[3,2-b]pyridin-1-yl)methyl)cyclohexane-1-carbonyl)isoxazolidin-3-yl)-5-fluorobenzonitrile]	50 nM	3 nM
Cc1nnc2ccc(C[C@H]3CC[C@H](C(=O)N4OCC[C@H]4c4cc(F)cc(C#N)c4)CC3)cn12 [compound 224, trans-3-fluoro-5-[(3S)-2-[4-[(3-methyl-[1,2,4]triazolo[4,3-a]pyridin-6-yl)methyl]cyclohexanecarbonyl]isoxazolidin-3-yl]benzonitrile]	35 nM	17 nM
O=C([C@H]1CC[C@H](Cc2ccc3ncnn3c2)CC1)N1OCC[C@H]1c1cncc(F)c1 [compound 338, trans-[(3S)-3-(5-fluoropyridin-3-yl)-1,2-oxazolidin-2-yl]-[4-([1,2,4]triazolo[1,5-a]pyridin-6-ylmethyl)cyclohexyl]methanone]	29 nM	45 nM
Cc1cnc([C@@H]2CCON2C(=O)[C@H]2CC[C@H](Cc3cc(F)c4nc(C)nn4c3)CC2)cn1 [compound 379, trans-[4-[(8-fluoro-2-methyl-[1,2,4]triazolo[1,5-a]pyridin-6-yl)methyl]cyclohexyl]-[(3S)-3-(5-methylpyrazin-2-yl)-1,2-oxazolidin-2-yl]methanone]	50 nM	191 nM
Cc1nc([C@@H]2CCON2C(=O)[C@H]2CC[C@H](Cc3cc(F)c4nnc(C)n4c3)CC2)cs1 [compound 363, trans-[4-(8-Fluoro-3-methyl-[1,2,4]triazolo[4,3-a]pyridin-6-ylmethyl)-cyclohexyl]-[(S)-3-(2-methyl-thiazol-4-yl)-isoxazolidin-2-yl]-methanone]	180 nM	222 nM
Cc1nc2ccc(C[C@H]3CC[C@H](C(=O)N4OCC[C@H]4c4cc(C#N)ccc4F)CC3)cn2n1 [compound 289, trans-4-fluoro-3-[(3S)-2-[4-[(2-methyl-[1,2,4]triazolo[1,5-a]pyridin-6-yl)methyl]cyclohexanecarbonyl]isoxazolidin-3-yl]benzonitrile]	36 nM	733 nM
Cc1cn2ncc(C[C@H]3CC[C@H](C(=O)N4OCC[C@H]4c4ccc(F)cc4)CC3)cc2n1 [compound 324, trans-[4-[(3S)-2-[4-[(2-methylimidazo[1,2-b]pyridazin-7-yl)methyl]cyclohexanecarbonyl]isoxazolidin-3-yl]phenyl]]	34 nM	35 nM
Cc1cc([C@@H]2CCON2C(=O)[C@H]2CC[C@H](Cn3cc4ccc(C#N)cc4n3)CC2)co1 [compound 41, trans-2-((4-((S)-3-(5-methylfuran-3-yl)isoxazolidine-2-carbonyl)cyclohexyl)methyl)-2H-indazole-6-carbonitrile]	30 nM	91 nM
N#Cc1cncc([C@@H]2CCON2C(=O)[C@H]2CC[C@H](Cn3cc4ccc(C#N)cc4n3)CC2)c1 [compound 127, trans-2-((4-((S)-3-(5-cyanopyridin-3-yl)isoxazolidine-2-carbonyl)cyclohexyl)methyl)-2H-indazole-6-carbonitrile]	29 nM	15 nM
NC(=O)c1cc2ncn(C[C@H]3CC[C@H](C(=O)N4OCC[C@H]4c4cc(F)cc(F)c4)CC3)c2cc1F [compound 75, trans-1-((4-((S)-3-(3,5-difluorophenyl)isoxazolidine-2-carbonyl)cyclohexyl)methyl)-6-fluoro-1H-benzo[d]imidazole-5-carboxamide]	27 nM	36 nM
Cc1ccc([C@@H]2CCON2C(=O)[C@H]2CC[C@H](Cc3ccc4nc(N)nn4c3)CC2)cn1 [compound 391, [4-[(2-amino-[1,2,4]triazolo[1,5-a]pyridin-6-yl)methyl]cyclohexyl]-[(3S)-3-(6-methylpyridin-3-yl)-1,2-oxazolidin-2-yl]methanone]	63 nM	64 nM
Cc1ccc([C@@H]2CCON2C(=O)C23CCC(Cc4ccc(C)c(C(N)=O)c4)(CC2)C3)cn1 [compound 271, 2-methyl-5-[[4-[(3S)-3-(6-methyl-3-pyridyl)isoxazolidine-2-carbonyl]norbornan-1-yl]methyl]benzamide]	97 nM	605 nM

These reach a lower IC50 [1]. Values come first.

IC50 [1]	Compound	IC50 (U937 cells)
26 nM	Cc1nc2c(Cl)cc(C[C@H]3CC[C@H](C(=O)N4OCC[C@H]4c4cncc(F)c4)CC3)cn2n1 [compound 382, [4-[(8-chloro-2-methyl-[1,2,4]triazolo[1,5-a]pyridin-6-yl)methyl]cyclohexyl]-[(3S)-3-(5-fluoropyridin-3-yl)-1,2-oxazolidin-2-yl]methanone]	8 nM
17 nM	Cc1nc2c(F)cc(C[C@H]3CC[C@H](C(=O)N4OCC[C@H]4c4cc(F)cc(C#N)c4)CC3)cn2n1 [compound 284, trans-3-fluoro-5-[(3S)-2-[4-[(8-fluoro-2-methyl-[1,2,4]triazolo[1,5-a]pyridin-6-yl)methyl]cyclohexanecarbonyl]isoxazolidin-3-yl]benzonitrile]	34 nM
4 nM	CNC(=O)c1cc(F)cc(C[C@H]2CC[C@H](C(=O)N3OCC[C@H]3c3cnccn3)CC2)c1 [compound 162, trans-3-fluoro-N-methyl-5-[[4-[(3S)-3-pyrazin-2-ylisoxazolidine-2-carbonyl]cyclohexyl]methyl]benzamide]	15 nM
12 nM	N#Cc1ccc2cnn(C[C@H]3CC[C@H](C(=O)N4OCC[C@H]4c4cc(F)cc(F)c4)CC3)c2c1 [compound 29, trans-1-((4-((S)-3-(3,5-difluorophenyl)isoxazolidine-2-carbonyl)cyclohexyl)methyl)-1H-indazole-6-carbonitrile]	1 nM
19 nM	Cc1cn2cc(C[C@H]3CC[C@H](C(=O)N4OCC[C@H]4c4cc(F)cc(C#N)c4)CC3)ccc2n1 [compound 225, trans-3-fluoro-5-[(3S)-2-[4-[(2-methylimidazo[1,2-a]pyridin-6-yl)methyl]cyclohexanecarbonyl]isoxazolidin-3-yl]benzonitrile]	7 nM
25 nM	NC(=O)c1ccc2cnn(C[C@H]3CC[C@H](C(=O)N4OCC[C@H]4c4cnccn4)CC3)c2c1 [Compound 229, trans-1-[[4-[(3S)-3-pyrazin-2-ylisoxazolidine-2-carbonyl]cyclohexyl]methyl]indazole-6-carboxamide]	78 nM
19 nM	O=C([C@H]1CC[C@H](Cn2ccc3ncc(F)cc32)CC1)N1OCC[C@H]1c1cc(F)cc(F)c1 [compound 94, trans-((S)-3-(3,5-difluorophenyl)isoxazolidin-2-yl)(4-((6-fluoro-1H-pyrrolo[3,2-b]pyridin-1-yl)methyl)cyclohexyl)methanone]	1 nM
23 nM	Cc1nn(C[C@H]2CC[C@H](C(=O)N3OCC[C@H]3c3cc(F)cc(F)c3)CC2)c2cc(C(N)=O)cc(F)c12 [compound 103, trans-1-((4-((S)-3-(3,5-difluorophenyl)isoxazolidine-2-carbonyl)cyclohexyl)methyl)-4-fluoro-3-methyl-1H-indazole-6-carboxamide]	22 nM
19 nM	Cc1cn2cc(C[C@H]3CC[C@H](C(=O)N4OCC[C@H]4c4cc(F)cc(F)c4)CC3)cc(F)c2n1 [compound 281, trans-[(3S)-3-(3,5-difluorophenyl)isoxazolidin-2-yl]-[4-[(8-fluoro-2-methyl-imidazo[1,2-a]pyridin-6-yl)methyl]cyclohexyl]methanone]	5 nM
16 nM	CNC(=O)c1ccc(F)c(C[C@H]2CC[C@H](C(=O)N3OCC[C@H]3c3cncc(F)c3)CC2)c1 [compound 172, trans-4-fluoro-3-[[4-[(3S)-3-(5-fluoro-3-pyridyl)isoxazolidine-2-carbonyl]cyclohexyl]methyl]-N-methyl-benzamide]	9 nM
23 nM	Cc1cn2cc(C[C@H]3CC[C@H](C(=O)N4OCC[C@H]4c4cc(F)cc(F)c4)CC3)ccc2n1 [compound 227, trans-[(3S)-3-(3,5-difluorophenyl)isoxazolidin-2-yl]-[4-[(2-methylimidazo[1,2-a]pyridin-6-yl)methyl]cyclohexyl]methanone]	5 nM
17 nM	Cc1nn(C[C@H]2CC[C@H](C(=O)N3OCC[C@H]3c3cc(F)cc(C#N)c3)CC2)c2cc(C#N)cc(F)c12 [compound 100, trans-1-((4-((S)-3-(3-cyano-5-fluorophenyl)isoxazolidine-2-carbonyl)cyclohexyl)methyl)-4-fluoro-3-methyl-1H-indazole-6-carbonitrile]	4 nM
